Results: publication PMC2744016, “Adenosine Triphosphate Stimulates Aquifex aeolicus MutL Endonuclease Activity” (PLoS ONE, 2009)

Assays:
Aae MutL [1] = molecular target: T1, Aae MutL (Aquifex aeolicus, UniProt O67518); test: filter-binding assay with 3H nucleotide; conditions: labelled compound; no DNA, ssDNA or dsDNA M13mp18; 10 mM MgCl2, 50 mM NaCl, pH 7.9, room temperature
T1 construct: full-length (C-terminal domain residues 303-425), expressed in E. coli Rosetta (DE3) from pTWIN1 as Mxe GyrA intein fusion, intein tag cleaved off
T1 sequence (O67518 1-425): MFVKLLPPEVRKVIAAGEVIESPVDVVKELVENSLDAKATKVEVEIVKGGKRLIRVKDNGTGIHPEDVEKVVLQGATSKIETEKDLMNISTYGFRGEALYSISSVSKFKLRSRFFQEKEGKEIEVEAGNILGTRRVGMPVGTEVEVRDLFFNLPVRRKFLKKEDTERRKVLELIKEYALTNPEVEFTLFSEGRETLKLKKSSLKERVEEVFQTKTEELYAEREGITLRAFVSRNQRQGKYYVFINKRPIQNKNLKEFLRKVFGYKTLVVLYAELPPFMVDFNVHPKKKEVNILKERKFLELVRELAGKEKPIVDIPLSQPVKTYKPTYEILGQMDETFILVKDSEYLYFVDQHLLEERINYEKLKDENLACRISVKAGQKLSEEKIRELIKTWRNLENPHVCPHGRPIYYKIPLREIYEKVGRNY

Aae MutL [2] = molecular target: T1, Aae MutL; test: initial rate of supercoiled pBR322 nicking, agarose gel; type: biochemical; conditions: 1 mM AMPPNP, 1 mM MnSO4, pH 7.6, 37 °C; activator

`Nc1ncnc2c1ncn2[C@@H]1O[C@H](COP(=O)(O)OP(=O)(O)O)[C@@H](O)[C@H]1O` [ADP] was tested, and the “filter-binding assay with 3H nucleotide” value (Aae MutL [1]) was “in the presence of ssDNA MutL binds both ATP and ADP with about equal affinity”.
`Nc1ncnc2c1ncn2[C@@H]1O[C@H](COP(=O)(O)OP(=O)(O)NP(=O)(O)O)[C@@H](O)[C@H]1O` [AMPPNP] was tested, and the “initial rate of supercoiled pBR322 nicking, agarose gel” value (Aae MutL [2]) was “AMPPNP stimulated Aae MutL nicking activity to the same extent as observed with ATP”.
For `Nc1ncnc2c1ncn2[C@@H]1O[C@H](COP(=O)(O)OP(=O)(O)OP(=O)(O)O)[C@@H](O)[C@H]1O` [ATP], the “filter-binding assay with 3H nucleotide” value (Aae MutL [1]) was “in the presence of ssDNA MutL binds both ATP and ADP with about equal affinity”.
